Measured values as given in ChEMBL document CHEMBL6092193, “Identification of furo[2,3-d]pyrimidin-4-ylsulfanyl-1,3,4-thiadiazole derivatives as novel FLT3-ITD inhibitors” (Eur J Med Chem, 2024).
Active and inactive are the calls of the source. No cut-off for these calls is given here.

What was measured:
[1] = system: HL-60; assay: Induction of cell cycle arrest in human HL-60 cells assessed as proportion of cells at G1 phase at 16 nM incubated for 24 hrs by PI staining based flow cytometry (reference value: 49.36%); assay type: functional
[2] = system: Receptor-type tyrosine-protein kinase FLT3 (Homo sapiens), P36888 [UNDEFINED MUTATION]; assay: Inhibition of FLT3-ITD mutant (unknown origin) expressed in mouse BaF3 cells assessed as inhibition of ERK1/2 phosphorylation at Thr202/Tyr204 residues at 16 to 2000 nM incubated for 2 hrs by immunoblot analysis; assay type: cell-based; conditions: dose lower […], dose upper 2000.0 nM
[3] = system: MOLM-13; assay: cells; conditions: Homo sapiens, MOLM-13, 72 h
[4] = biological target: Receptor-type tyrosine-protein kinase FLT3 (Homo sapiens) (UniProt P36888); assay: Inhibition of FLT3 in human MV4-11 cells assessed as inhibition of ERK1/2 phosphorylation at Thr202/Tyr204 residues incubated for 1 hr by immunoblot analysis; assay type: cell-based; conditions: dose lower […], dose upper 2000.0 nM
[5] = system: MV4-11; assay: Induction of cell cycle arrest in human MV4-11 cells assessed as proportion of cells at S phase at 80 nM incubated for 24 hrs by PI staining based flow cytometry (reference value: 25.97%); assay type: functional
[6] = system: MV4-11; assay type: functional, Homo sapiens; conditions: dose 16 nM; time 24 hrs
[7] = system: HL-60; assay: Induction of cell cycle arrest in human HL-60 cells assessed as proportion of cells at G2/M phase at 3.2 nM incubated for 24 hrs by PI staining based flow cytometry (reference value: 14.52%); assay type: functional
[8] = system: HL-60; assay: Induction of cell cycle arrest in human HL-60 cells assessed as proportion of cells at G2/M phase at 2000 nM incubated for 24 hrs by PI staining based flow cytometry (reference value: 14.52%); assay type: functional
[9] = system: MV4-11; assay: Induction of cell cycle arrest in human MV4-11 cells assessed as proportion of cells at G2/M phase at 400 nM incubated for 24 hrs by PI staining based flow cytometry (reference value: 10%); assay type: functional
[10] = system: HL-60; assay: Induction of cell cycle arrest in human HL-60 cells assessed as proportion of cells at G2/M phase at 80 nM incubated for 24 hrs by PI staining based flow cytometry (reference value: 14.52%); assay type: functional
[11] = system: HL-60; assay: Induction of cell cycle arrest in human HL-60 cells assessed as proportion of cells at S phase at 2000 nM incubated for 24 hrs by PI staining based flow cytometry (reference value: 36.12%); assay type: functional
[12] = system: HL-60; assay: Induction of cell cycle arrest in human HL-60 cells assessed as proportion of cells at S phase at 3.2 nM incubated for 24 hrs by PI staining based flow cytometry (reference value: 36.12%); assay type: functional
[13] = biological target: Receptor-type tyrosine-protein kinase FLT3 (Homo sapiens) (UniProt P36888); assay: Inhibition of FLT3 in human MV4-11 cells assessed as inhibition of STAT5 phosphorylation at Tyr694 residue incubated for 1 hr by immunoblot analysis; assay type: cell-based; conditions: dose lower […], dose upper 2000.0 nM
[14] = system: MV4-11; assay: Induction of cell cycle arrest in human MV4-11 cells assessed as proportion of cells at G2/M phase at 16 nM incubated for 24 hrs by PI staining based flow cytometry (reference value: 10%); assay type: functional
[15] = system: Receptor-type tyrosine-protein kinase FLT3 (Homo sapiens), P36888 [UNDEFINED MUTATION]; assay type: cell-based; conditions: BaF3, dose lower […], dose upper 2000.0 nM, time 2.0 hrs
[16] = system: MV4-11; assay: Induction of cell cycle arrest in human MV4-11 cells assessed as proportion of cells at subG1 phase at 80 nM incubated for 24 hrs by PI staining based flow cytometry (reference value: 10.44%); assay type: functional
[17] = system: HL-60; assay: Induction of cell cycle arrest in human HL-60 cells assessed as proportion of cells at G2/M phase at 400 nM incubated for 24 hrs by PI staining based flow cytometry (reference value: 14.52%); assay type: functional
[18] = system: HL-60; assay: Induction of cell cycle arrest in human HL-60 cells assessed as proportion of cells at G2/M phase at 16 nM incubated for 24 hrs by PI staining based flow cytometry (reference value: 14.52%); assay type: functional
[19] = system: HL-60; assay: Induction of cell cycle arrest in human HL-60 cells assessed as proportion of cells at subG1 phase at 80 nM incubated for 24 hrs by PI staining based flow cytometry (reference value: 6.94%); assay type: functional
[20] = system: HL-60; assay: Induction of cell cycle arrest in human HL-60 cells assessed as proportion of cells at G1 phase at 80 nM incubated for 24 hrs by PI staining based flow cytometry (reference value: 49.36%); assay type: functional
[21] = system: MV4-11; assay: Induction of cell cycle arrest in human MV4-11 cells assessed as proportion of cells at S phase at 2000 nM incubated for 24 hrs by PI staining based flow cytometry (reference value: 25.97%); assay type: functional
[22] = system: MV4-11; assay: Induction of cell cycle arrest in human MV4-11 cells assessed as proportion of cells at S phase at 16 nM incubated for 24 hrs by PI staining based flow cytometry (reference value: 25.97%); assay type: functional
[23] = system: MV4-11; assay: Induction of cell cycle arrest in human MV4-11 cells assessed as proportion of cells at subG1 phase at 2000 nM incubated for 24 hrs by PI staining based flow cytometry (reference value: 10.44%); assay type: functional
[24] = system: MV4-11; assay: Induction of cell cycle arrest in human MV4-11 cells assessed as proportion of cells at G2/M phase at 2000 nM incubated for 24 hrs by PI staining based flow cytometry (reference value: 10%); assay type: functional
[25] = system: MV4-11; assay: Induction of cell cycle arrest in human MV4-11 cells assessed as proportion of cells at S phase at 3.2 nM incubated for 24 hrs by PI staining based flow cytometry (reference value: 25.97%); assay type: functional
[26] = Selectivity ratio of GI50 for antiproliferative activity against human MV4-11 cells to GI50 for antiproliferative activity against human MOLM-13 cells
[27] = system: MV4-11; assay type: functional, Homo sapiens; conditions: dose 3.2 nM; time 24 hrs
[28] = system: BaF3; assay: cells; conditions: Mus musculus, BaF3, 72 h
[29] = system: Receptor-type tyrosine-protein kinase FLT3 (Homo sapiens), P36888 [UNDEFINED MUTATION]; assay type: cell-based; conditions: BaF3, dose lower […], dose upper 2000.0 nM, time 2.0 hrs; remark: listed apart in the source
[30] = system: Receptor-type tyrosine-protein kinase FLT3 (Homo sapiens), P36888 [UNDEFINED MUTATION]; assay: Inhibition of FLT3-ITD mutant (unknown origin) expressed in mouse BaF3 cells assessed as inhibition of STAT5 phosphorylation at Tyr694 residue at 16 to 2000 nM incubated for 2 hrs by immunoblot analysis; assay type: cell-based; conditions: dose lower […], dose upper 2000.0 nM
[31] = system: MV4-11; assay: Antiproliferative activity against human MV4-11 cells harboring homozygous FLT3-ITD mutant assessed as inhibition of cell growth incubated for 72 hrs by resazurin dye based fluorescence analysis; assay type: functional
[32] = system: HL-60; assay: Induction of cell cycle arrest in human HL-60 cells assessed as proportion of cells at subG1 phase at 3.2 nM incubated for 24 hrs by PI staining based flow cytometry (reference value: 6.94%); assay type: functional
[33] = system: EOL1; assay: cells; conditions: Homo sapiens, EOL1, 72 h
Description: Antiproliferative activity against human EOL1 cells harboring FIP1L1-PDGFRA fusion gene assessed as inhibition of cell growth incubated for 72 hrs by resazurin dye based fluorescence analysis

[34] = system: MV4-11; assay type: functional, Homo sapiens; conditions: dose 2000 nM; time 24 hrs
[35] = system: HL-60; assay: Induction of cell cycle arrest in human HL-60 cells assessed as proportion of cells at G1 phase at 400 nM incubated for 24 hrs by PI staining based flow cytometry (reference value: 49.36%); assay type: functional
[36] = system: HL-60; assay: Induction of cell cycle arrest in human HL-60 cells assessed as proportion of cells at subG1 phase at 2000 nM incubated for 24 hrs by PI staining based flow cytometry (reference value: 6.94%); assay type: functional

Chain of Receptor-type tyrosine-protein kinase FLT3 (Homo sapiens), P36888 [UNDEFINED MUTATION] (P36888 whole entry, looked up, stated change not applied): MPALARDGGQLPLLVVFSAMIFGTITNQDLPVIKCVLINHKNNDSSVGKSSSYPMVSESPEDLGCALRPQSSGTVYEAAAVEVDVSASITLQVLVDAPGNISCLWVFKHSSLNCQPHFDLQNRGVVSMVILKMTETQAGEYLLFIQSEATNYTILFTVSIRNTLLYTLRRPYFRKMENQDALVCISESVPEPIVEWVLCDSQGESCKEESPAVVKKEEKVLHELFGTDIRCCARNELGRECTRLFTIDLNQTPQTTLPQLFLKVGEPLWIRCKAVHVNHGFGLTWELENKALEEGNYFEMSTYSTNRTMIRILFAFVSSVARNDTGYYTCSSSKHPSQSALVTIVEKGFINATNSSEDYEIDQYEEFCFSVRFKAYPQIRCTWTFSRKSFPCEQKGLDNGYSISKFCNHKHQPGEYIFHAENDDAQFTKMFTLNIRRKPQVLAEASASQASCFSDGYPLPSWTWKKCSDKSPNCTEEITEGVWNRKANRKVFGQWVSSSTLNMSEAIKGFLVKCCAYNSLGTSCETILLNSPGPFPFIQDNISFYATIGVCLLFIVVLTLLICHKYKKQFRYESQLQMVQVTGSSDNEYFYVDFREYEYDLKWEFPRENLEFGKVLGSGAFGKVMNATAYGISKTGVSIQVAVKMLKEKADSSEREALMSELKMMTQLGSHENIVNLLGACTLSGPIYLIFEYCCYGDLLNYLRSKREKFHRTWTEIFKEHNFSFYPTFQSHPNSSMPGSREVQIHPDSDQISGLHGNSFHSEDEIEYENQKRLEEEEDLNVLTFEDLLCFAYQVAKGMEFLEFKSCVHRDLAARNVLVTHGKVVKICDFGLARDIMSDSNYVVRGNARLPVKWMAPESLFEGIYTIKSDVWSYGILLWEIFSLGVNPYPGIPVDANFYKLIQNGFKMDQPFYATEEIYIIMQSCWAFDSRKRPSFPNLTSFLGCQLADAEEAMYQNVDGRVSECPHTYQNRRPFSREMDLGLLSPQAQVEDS
Chain of Receptor-type tyrosine-protein kinase FLT3 (Homo sapiens) (P36888 whole entry): as the sequence (P36888 whole entry, looked up, stated change not applied) above

## COc1ccc(NC(=O)Nc2nnc(Sc3ncnc4oc(-c5ccccc5)cc34)s2)cc1
[1]
  Activity: 48.76%
[2]
  inhibition: Active
[3]
  GI50: 63 nM
[4]
  inhibition: Dose-dependent-effect
[5]
  Activity: 3.85%
[6]
  Activity: 89.29%
[7]
  Activity: 13.04%
[8]
  Activity: 13.94%
[9]
  Activity: 1.43%
[10]
  Activity: 13.68%
[11]
  Activity: 37.26%
[12]
  Activity: 37.01%
[13]
  inhibition: Dose-dependent-effect
[14]
  Activity: 2.63%
[15]
  inhibition: Active
[16]
  Activity: 26.76%
[17]
  Activity: 13.74%
[18]
  Activity: 13.57%
[19]
  Activity: 8.17%
[20]
  Activity: 49.29%
[21]
  Activity: 5.78%
[22]
  Activity: 8.07%
[23]
  Activity: 38.33%
[24]
  Activity: 1.1%
[25]
  Activity: 20.86%
[26]
  RatioGI50: 100
[27]
  Activity: 72.92%
[28]
  GI50: 54 nM
[29]
  inhibition: Active
[30]
  inhibition: Active
[31]
  GI50: 105 nM
[32]
  Activity: 7.88%
[33]
  GI50: 39 nM
[34]
  Activity: 93.13%
[35]
  Activity: 50.35%
[36]
  Activity: 7.81%
